Experiments:
Test in all cases: competitive isoTOP-ABPP
Assay type in all cases: binding
[1] = biological target: T1, ECH1 Delta(3,5)-Delta(2,4)-dienoyl-CoA isomerase, mitochondrial (Homo sapiens, UniProt Q13011); parameters: key to isoTOP-ABPP reactivity ratio at lysine Q13011_K112: R = MS1 peak area ratio, DMSO (heavy) / compound-treated (light); capped at 20; settings: for isoTOP-ABPP reactivity ratio at lysine Q13011_K112 / isoTOP-ABPP ratio (R) at liganded lysine Q13011_K112: 50 uM, in vitro; for isoTOP-ABPP reactivity ratio at lysine Q13011_K112: 231 sol; for isoTOP-ABPP ratio (R) at liganded lysine Q13011_K112: sol, 231; for isoTOP-ABPP ratio, lysine Q13011_K112: 50 uM_231_sol_in vitro
T1 construct: isoTOP-ABPP experiments performed in cell lysates (in vitro); endogenous in cells; host or cells: soluble proteome of human cancer cell lines (MDA-MB-231, Ramos, Jurkat)
T1 sequence (Q13011 34-328): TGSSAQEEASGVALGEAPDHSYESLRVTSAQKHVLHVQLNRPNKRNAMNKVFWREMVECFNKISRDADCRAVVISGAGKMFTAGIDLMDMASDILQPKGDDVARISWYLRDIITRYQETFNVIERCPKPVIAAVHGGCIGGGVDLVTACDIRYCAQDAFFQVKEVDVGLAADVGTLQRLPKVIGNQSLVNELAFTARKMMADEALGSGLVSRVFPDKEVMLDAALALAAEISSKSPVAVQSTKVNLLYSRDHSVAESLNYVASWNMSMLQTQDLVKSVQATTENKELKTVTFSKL
Protocol: (§1) In vitro covalent fragment treatment for isoTOP-ABPP. All compounds were made up as solutions in DMSO (100×) and were used at a final concentration of 50 μM for activated esters and 100 μM for guanidinylating agents. For each profiling sample, 0.5 ml of lysate was treated with 5 μl of the 100× compound stock solution or 5 μl of DMSO. Samples were treated with activated esters for
(§2) STP-alkyne labeling and click chemistry. For concentration-dependent reactivity measurements by isoTOP-ABPP, 0.5 ml proteome aliquots were treated at ambient temperature with 1 mM STP-alkyne 1 (5 μl of 100 mM stock in DMSO) and 0.1 mM STP alkyne 1 (5 μl of 10 mM stock in DMSO), respectively. For competitive isoTOP-ABPP, after in vitro fragment treatment (detailed above), the samples were labeled for 1 h at ambient temperature with 0.1 mM STP-alkyne 1 (5 μl of 10 mM stock in DMSO). Samples were conjugated by copper-mediated azide-alkyne cycloaddition (CuAAC) to either the light (1 mM STP-alkyne or fragment treated) or heavy (0.1 mM STP-alkyne or DMSO treated) TEV tags (10 μl of 5 mM stocks in DMSO, final concentration=100 μM) using tris(2-carboxyethyl)phosphine hydrochloride
(§3) R value calculation and processing. The ratios of light and heavy MS1 peaks for each unique peptide were quantified with a CIMAGE software using default parameters (3 MS1 acquisitions per peak and signal to noise threshold set to 2.5). For reactivity measurements by isoTOP-ABPP, the R value was calculated from the ratio of MS1 peak areas, comparing the 1 mM STP alkyne sample (light TEV tag) with the 0.1 mM STP alkyne sample (heavy TEV tag). For competitive isoTOP-ABPP, the R value was calculated from the ratio of MS1 peak areas, comparing the DMSO treated sample (heavy TEV tag) with the compound treated sample (light TEV tag). […] Ratios for unique peptide entries are calculated for each experiment; overlapping peptides with the same modified lysine (for example, different charge states, MudPIT chromatographic steps or tryptic termini) are grouped together and the median ratio is reported as the final ratio (R). The peptide ratios reported by CIMAGE were further filtered to ensure the removal or correction of low-quality ratios in each individual data set. The quality filters applied were the following: removal of half tryptic peptides; for ratios with high standard deviations from the median (90% of the median or above) the lowest ratio was taken instead of the median; removal of peptides with R=20 and only a single MS2 event triggered during the elution of the parent ion; manual annotation of all the peptides with ratios of 20, removing any peptides with low quality elution profiles that remained after the previous curation steps (only done for competitive isoTOP-ABPP).
(§4) Cross-data processing for fragment screening. For compound treated samples, biological replicates of the same condition were averaged, if the standard deviation was below 60% of the mean; otherwise, for lysines with at least one R value <4 for a particular compound, the lowest value of the ratio set was taken. For lysines, where all R values for a particular compound were ≥4, the average was reported. For peptides containing several possible modified lysines, the lysine with the highest number of quantification events was used for analysis and the remaining, redundant peptides were reported as alternative modification sites. Peptides included in the aggregate dataset (those used for further bioinformatics and statistical analyses) were required to have been quantified in 2 experiments for competitive isoTOP-ABPP. Lysines were categorized as liganded, if they had at least one ratio R≥4 (hit fragments). For liganded lysines with R=20 for all liganding events, lysines were required to have been quantified with R=20 in two separate experiments and were further required to have been quantified with R<20 in one additional experiment.

PLIN3 Perilipin-3 = biological target: T2, PLIN3 Perilipin-3 (Homo sapiens, UniProt O60664); parameters: key to isoTOP-ABPP reactivity ratio at lysine O60664_K257 / isoTOP-ABPP reactivity ratio at lysine O60664_K140: R = MS1 peak area ratio, DMSO (heavy) / compound-treated (light); capped at 20; settings: for isoTOP-ABPP reactivity ratio at lysine O60664_K140 / isoTOP-ABPP reactivity ratio at lysine O60664_K257 / isoTOP-ABPP ratio (R) at liganded lysine O60664_K140 / isoTOP-ABPP ratio (R) at liganded lysine O60664_K257: 50 uM, in vitro; for isoTOP-ABPP reactivity ratio at lysine O60664_K140 / isoTOP-ABPP reactivity ratio at lysine O60664_K257: 231 sol; for isoTOP-ABPP ratio (R) at liganded lysine O60664_K140 / isoTOP-ABPP ratio (R) at liganded lysine O60664_K257: sol, 231
T2 construct: isoTOP-ABPP experiments performed in cell lysates (in vitro); endogenous in cells; host or cells: MDA-MB-231 soluble lysate
T2 sequence (O60664 1-434): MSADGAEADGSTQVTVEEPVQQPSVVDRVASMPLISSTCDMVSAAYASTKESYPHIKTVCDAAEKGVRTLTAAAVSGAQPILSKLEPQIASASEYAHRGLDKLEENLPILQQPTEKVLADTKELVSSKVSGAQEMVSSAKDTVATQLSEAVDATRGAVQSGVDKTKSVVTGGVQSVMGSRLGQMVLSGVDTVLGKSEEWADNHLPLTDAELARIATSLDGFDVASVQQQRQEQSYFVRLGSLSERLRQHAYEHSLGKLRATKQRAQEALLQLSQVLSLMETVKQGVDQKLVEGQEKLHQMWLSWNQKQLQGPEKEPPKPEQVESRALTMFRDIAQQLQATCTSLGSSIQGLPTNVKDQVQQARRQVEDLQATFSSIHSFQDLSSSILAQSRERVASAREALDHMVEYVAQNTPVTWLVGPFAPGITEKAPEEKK
Protocol: as §1, §2, §3, §4

[2] = biological target: T3, ISOC2 Isochorismatase domain-containing protein 2, mitochondrial (Homo sapiens, UniProt Q96AB3); parameters: key to isoTOP-ABPP reactivity ratio at lysine Q96AB3_K178: R = MS1 peak area ratio, DMSO (heavy) / compound-treated (light); capped at 20; settings: for isoTOP-ABPP reactivity ratio at lysine Q96AB3_K178 / isoTOP-ABPP ratio (R) at liganded lysine Q96AB3_K178: 50 uM, in vitro; for isoTOP-ABPP reactivity ratio at lysine Q96AB3_K178: 231 sol; for isoTOP-ABPP ratio (R) at liganded lysine Q96AB3_K178: sol, 231; for isoTOP-ABPP ratio, lysine Q96AB3_K178: 50 uM_231_sol_in vitro
T3 construct: isoTOP-ABPP experiments performed in cell lysates (in vitro); endogenous in cells; host or cells: soluble proteome of human cancer cell lines (MDA-MB-231; Ramos and Jurkat also prepared)
T3 sequence (Q96AB3 1-205): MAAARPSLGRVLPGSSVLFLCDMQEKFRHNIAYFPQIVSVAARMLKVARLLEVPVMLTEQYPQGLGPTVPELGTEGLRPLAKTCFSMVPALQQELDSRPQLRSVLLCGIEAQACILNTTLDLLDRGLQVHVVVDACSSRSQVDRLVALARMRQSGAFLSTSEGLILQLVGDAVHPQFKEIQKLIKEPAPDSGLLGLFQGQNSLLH
Protocol: as §1, §2, §3, §4

Compound | isoTOP-ABPP ratio (R) at liganded lysine Q13011_K112 [1] | isoTOP-ABPP ratio (R) at liganded lysine O60664_K140 (PLIN3 Perilipin-3) | isoTOP-ABPP ratio (R) at liganded lysine O60664_K257 (PLIN3 Perilipin-3) | isoTOP-ABPP ratio (R) at liganded lysine Q96AB3_K178 [2] | other results
O=C(CCc1cn(-c2ccccc2)nc1-c1ccccc1)Oc1ccc([N+](=O)[O-])cc1[N+](=O)[O-] [fragment 29, 2,4-Dinitrophenyl 3-(1,3-diphenyl-1H-pyrazol-4-yl)propanoate] | – | – | – | – | isoTOP-ABPP reactivity ratio at lysine Q13011_K112 [1]: 1.0; isoTOP-ABPP reactivity ratio at lysine O60664_K140 (PLIN3 Perilipin-3): 2.1; isoTOP-ABPP reactivity ratio at lysine O60664_K257 (PLIN3 Perilipin-3): 3.5; isoTOP-ABPP reactivity ratio at lysine Q96AB3_K178 [2]: 1.7
O=C(Oc1ccc([N+](=O)[O-])cc1[N+](=O)[O-])C(c1ccccc1)c1ccccc1 [fragment 30, 2,4-Dinitrophenyl 2,2-diphenylacetate] | – | – | – | – | isoTOP-ABPP reactivity ratio at lysine Q13011_K112 [1]: 0.9; isoTOP-ABPP reactivity ratio at lysine O60664_K140 (PLIN3 Perilipin-3): 4.5; isoTOP-ABPP reactivity ratio at lysine O60664_K257 (PLIN3 Perilipin-3): 2.9; isoTOP-ABPP reactivity ratio at lysine Q96AB3_K178 [2]: 1.0
COc1cc(CCC(=O)Oc2ccc([N+](=O)[O-])cc2[N+](=O)[O-])cc(OC)c1OC [fragment 33, 2,4-Dinitrophenyl 3-(3,4,5-trimethoxyphenyl)propanoate] | – | – | – | – | isoTOP-ABPP reactivity ratio at lysine Q13011_K112 [1]: 0.9; isoTOP-ABPP reactivity ratio at lysine O60664_K140 (PLIN3 Perilipin-3): 1.1; isoTOP-ABPP reactivity ratio at lysine O60664_K257 (PLIN3 Perilipin-3): 2.2; isoTOP-ABPP reactivity ratio at lysine Q96AB3_K178 [2]: 9.1
O=C(Oc1ccc([N+](=O)[O-])cc1[N+](=O)[O-])c1ccc2ccccc2n1 [fragment 35, 2,4-Dinitrophenyl quinoline-2-carboxylate] | 1.0 | 1.1 | 1.2 | 1.3 | –
O=C(CCc1coc2cc(F)ccc2c1=O)Oc1ccc([N+](=O)[O-])cc1[N+](=O)[O-] [fragment 36, 2,4-Dinitrophenyl 3-(7-fluoro-4-oxo-4H-chromen-3-yl)propanoate] | 1.3 | 1.5 | 3.9 | 1.7 | –
O=C(Oc1ccc([N+](=O)[O-])cc1[N+](=O)[O-])c1ccc(-c2ccccc2)cc1 [fragment 37, 2,4-Dinitrophenyl [1,1′-biphenyl]-4-carboxylate] | 0.9 | – | 3.5 | 0.9 | –
O=C(Oc1ccc([N+](=O)[O-])cc1[N+](=O)[O-])c1ccc(Oc2ccccc2)cc1 [fragment 39, 2,4-Dinitrophenyl 4-phenoxybenzoate] | 1.1 | 2.0 | 2.2 | 0.9 | –
O=C(Oc1ccc([N+](=O)[O-])cc1[N+](=O)[O-])c1ccccc1Nc1cccc(C(F)(F)F)c1 [fragment 40, 2,4-Dinitrophenyl 2-((3-(trifluoromethyl)phenyl)amino)benzoate] | 1.0 | – | 1.6 | 0.9 | –
CC(C)(C)OC(=O)NCCCC(=O)Oc1ccc([N+](=O)[O-])cc1[N+](=O)[O-] [fragment 41, 2,4-Dinitrophenyl 4-((tert-butoxycarbonyl)amino)butanoate] | 1.0 | 2.1 | – | 1.9 | –
O=C(Oc1ccc([N+](=O)[O-])cc1[N+](=O)[O-])C(c1ccccc1)(c1ccccc1)c1ccccc1 [fragment 42, 2,4-Dinitrophenyl 2,2,2-triphenylacetate] | 1.0 | 0.9 | 0.9 | 1.0 | –
N#Cc1ccc(C(=O)Oc2ccc([N+](=O)[O-])cc2[N+](=O)[O-])cc1 [fragment 44, 2,4-Dinitrophenyl 4-cyanobenzoate] | – | – | – | – | isoTOP-ABPP ratio, lysine Q13011_K112 [1]: 0.9; isoTOP-ABPP ratio, lysine O60664_K257 (PLIN3 Perilipin-3; 50 uM_231_sol_in vitro): 1.9; isoTOP-ABPP ratio, lysine Q96AB3_K178 [2]: 1.3
O=C(CCc1ccc2c(c1)OCO2)Oc1ccc([N+](=O)[O-])cc1[N+](=O)[O-] [fragment 45, 2,4-Dinitrophenyl 3-(benzo[d][1,3]dioxol-5-yl)propanoate] | – | – | – | – | isoTOP-ABPP ratio, lysine Q13011_K112 [1]: 1.0; isoTOP-ABPP ratio, lysine O60664_K140 (PLIN3 Perilipin-3; 50 uM_231_sol_in vitro): 2.1; isoTOP-ABPP ratio, lysine O60664_K257 (PLIN3 Perilipin-3; 50 uM_231_sol_in vitro): 2.5; isoTOP-ABPP ratio, lysine Q96AB3_K178 [2]: 1.8
O=C(ON1C(=O)CCC1=O)c1cc(C(F)(F)F)cc(C(F)(F)F)c1 [fragment 46, 3,5-Bis(trifluoromethyl)benzoic acid NHS ester] | – | – | – | – | isoTOP-ABPP ratio, lysine Q13011_K112 [1]: 0.8; isoTOP-ABPP ratio, lysine O60664_K257 (PLIN3 Perilipin-3; 50 uM_231_sol_in vitro): 0.6; isoTOP-ABPP ratio, lysine Q96AB3_K178 [2]: 1.5
